Reference: patent US12570650B2, “6-substituted pyridazine compounds as SMARCA2 and/or SMARCA4 degraders” (Aurigene Oncology Limited, priority 2020, dated 2026)

Key:
Type in all cases: cell-based
SMARCA2 = target: T1, SMARCA2 (Homo sapiens, UniProt P51531); experiment: SMARCA2 degradation in VCaP cells by Western blot; details: 16 hours
T1 construct: Determination of SMARCA2 and SMARCA4 Degradation in VCaP Cells by Western Blot; endogenous in cells; host or cells: VCaP (ATCC CRL-2876)
How it was run: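 VCaP cells were treated with compound for 16 hours, with DMSO at no more than 0.3% final. Lysates were immunoblotted for SMARCA2, using beta-tubulin as loading control. % degradation = 100 − (normalized band intensity treated/normalized band intensity DMSO)×100.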

RERF-LC-A1 cell line = experiment: Anti proliferative activity, Cell Titer Glo assay, RERF-LC-A1; details: 144 h; RERF-LC-A1 cells, terminated day 6 without retreatment, CellTiter-Glo
Description: (§1) Example-P3: Determination of Anti Proliferative Activity of Compounds by Cell Titer Glo®(Promega) Assay
(§2) Cells were seeded into 96-well plates and the plate was incubated in 37 degrees incubator overnight. The next day, compounds were diluted 3-fold to cover 9-point concentration range in DMSO. Intermediate plate dilution was prepared in media followed with compound treatment in cells. Retreatment of cells with compound dilutions was performed on Day 4 and assay was terminated on day 8 for SK-MEL-5 cells using CellTiter-Glo and the plate was kept on orbital shaker for 20 minutes at RT. Assay was terminated on day 6 for RERF-LC-A1 without a compound retreatment. Luminescence signal was recorded on VICTOR^3 instrument. Percent inhibition of proliferation was calculated at each concentration and plotted against the compound concentration. EC50 value was calculated using GraphPad software.
Herein the group “++” refers to EC50 (RERF-LC-A1) values lower than 100 nM and “+” refers to EC50 (RERF-LC-A1) values greater than 100 nM.

SMARCA4 = target: T2, SMARCA4 (Homo sapiens, UniProt P51532); experiment: SMARCA4 degradation in VCaP cells by Western blot; details: 16 hours
T2 construct: Determination of SMARCA2 and SMARCA4 Degradation in VCaP Cells by Western Blot; endogenous in cells; host or cells: VCaP (ATCC CRL-2876)
How it was run: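 VCaP cells treated with compounds diluted from DMSO stocks, final DMSO ≤0.3%; equal protein analysed by SDS-PAGE Western blot. Degradation = 100 − (normalized SMARCA4 band in treated/DMSO sample)×100.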

SK-MEL-5 cells = experiment: Anti proliferative activity, Cell Titer Glo assay, SK-MEL-5; details: Homo sapiens, SK-MEL-5, SK-MEL-5 cells, retreatment Day 4, terminated day 8, CellTiter-Glo
Description: as §1, §2

T1 sequence (P51531 whole entry): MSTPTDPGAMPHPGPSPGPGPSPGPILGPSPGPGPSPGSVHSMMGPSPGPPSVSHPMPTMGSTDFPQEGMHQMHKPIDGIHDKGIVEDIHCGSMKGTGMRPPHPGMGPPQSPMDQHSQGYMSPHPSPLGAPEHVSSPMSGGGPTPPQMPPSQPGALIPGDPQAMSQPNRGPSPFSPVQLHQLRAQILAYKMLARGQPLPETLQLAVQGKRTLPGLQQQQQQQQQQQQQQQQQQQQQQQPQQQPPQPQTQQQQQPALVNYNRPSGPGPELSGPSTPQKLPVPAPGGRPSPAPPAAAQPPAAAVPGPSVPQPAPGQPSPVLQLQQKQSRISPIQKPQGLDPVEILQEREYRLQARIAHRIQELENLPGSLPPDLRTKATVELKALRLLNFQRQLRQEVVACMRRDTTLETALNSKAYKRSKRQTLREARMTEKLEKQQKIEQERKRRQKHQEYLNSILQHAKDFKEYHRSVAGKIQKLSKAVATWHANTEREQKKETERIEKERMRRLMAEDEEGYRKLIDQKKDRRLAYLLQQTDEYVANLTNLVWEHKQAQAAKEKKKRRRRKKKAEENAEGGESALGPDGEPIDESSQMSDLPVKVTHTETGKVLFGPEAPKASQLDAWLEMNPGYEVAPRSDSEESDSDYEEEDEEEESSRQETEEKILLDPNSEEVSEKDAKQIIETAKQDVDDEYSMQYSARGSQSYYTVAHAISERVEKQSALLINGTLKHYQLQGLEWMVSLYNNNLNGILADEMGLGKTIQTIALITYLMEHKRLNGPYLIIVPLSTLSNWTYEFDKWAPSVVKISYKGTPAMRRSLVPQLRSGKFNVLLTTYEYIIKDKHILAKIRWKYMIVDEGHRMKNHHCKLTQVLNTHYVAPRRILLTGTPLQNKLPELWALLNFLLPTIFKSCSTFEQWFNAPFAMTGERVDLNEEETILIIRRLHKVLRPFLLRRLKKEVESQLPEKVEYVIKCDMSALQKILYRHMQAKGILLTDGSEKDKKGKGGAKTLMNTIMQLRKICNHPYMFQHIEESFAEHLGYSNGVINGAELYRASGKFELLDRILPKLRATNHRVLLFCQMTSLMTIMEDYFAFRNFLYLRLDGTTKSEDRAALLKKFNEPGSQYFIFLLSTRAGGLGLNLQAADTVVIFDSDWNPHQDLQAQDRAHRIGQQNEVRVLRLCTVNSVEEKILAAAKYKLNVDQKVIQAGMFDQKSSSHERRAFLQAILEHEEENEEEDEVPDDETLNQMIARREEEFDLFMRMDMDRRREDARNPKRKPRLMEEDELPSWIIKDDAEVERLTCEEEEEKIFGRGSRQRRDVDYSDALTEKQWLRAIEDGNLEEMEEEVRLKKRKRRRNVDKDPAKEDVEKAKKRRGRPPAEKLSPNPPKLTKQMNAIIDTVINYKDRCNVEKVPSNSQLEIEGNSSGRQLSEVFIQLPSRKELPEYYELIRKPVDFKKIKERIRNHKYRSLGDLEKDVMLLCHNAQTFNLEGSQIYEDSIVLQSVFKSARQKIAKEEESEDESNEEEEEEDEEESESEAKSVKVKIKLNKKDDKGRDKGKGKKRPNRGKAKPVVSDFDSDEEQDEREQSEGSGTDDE
T2 sequence (P51532 whole entry): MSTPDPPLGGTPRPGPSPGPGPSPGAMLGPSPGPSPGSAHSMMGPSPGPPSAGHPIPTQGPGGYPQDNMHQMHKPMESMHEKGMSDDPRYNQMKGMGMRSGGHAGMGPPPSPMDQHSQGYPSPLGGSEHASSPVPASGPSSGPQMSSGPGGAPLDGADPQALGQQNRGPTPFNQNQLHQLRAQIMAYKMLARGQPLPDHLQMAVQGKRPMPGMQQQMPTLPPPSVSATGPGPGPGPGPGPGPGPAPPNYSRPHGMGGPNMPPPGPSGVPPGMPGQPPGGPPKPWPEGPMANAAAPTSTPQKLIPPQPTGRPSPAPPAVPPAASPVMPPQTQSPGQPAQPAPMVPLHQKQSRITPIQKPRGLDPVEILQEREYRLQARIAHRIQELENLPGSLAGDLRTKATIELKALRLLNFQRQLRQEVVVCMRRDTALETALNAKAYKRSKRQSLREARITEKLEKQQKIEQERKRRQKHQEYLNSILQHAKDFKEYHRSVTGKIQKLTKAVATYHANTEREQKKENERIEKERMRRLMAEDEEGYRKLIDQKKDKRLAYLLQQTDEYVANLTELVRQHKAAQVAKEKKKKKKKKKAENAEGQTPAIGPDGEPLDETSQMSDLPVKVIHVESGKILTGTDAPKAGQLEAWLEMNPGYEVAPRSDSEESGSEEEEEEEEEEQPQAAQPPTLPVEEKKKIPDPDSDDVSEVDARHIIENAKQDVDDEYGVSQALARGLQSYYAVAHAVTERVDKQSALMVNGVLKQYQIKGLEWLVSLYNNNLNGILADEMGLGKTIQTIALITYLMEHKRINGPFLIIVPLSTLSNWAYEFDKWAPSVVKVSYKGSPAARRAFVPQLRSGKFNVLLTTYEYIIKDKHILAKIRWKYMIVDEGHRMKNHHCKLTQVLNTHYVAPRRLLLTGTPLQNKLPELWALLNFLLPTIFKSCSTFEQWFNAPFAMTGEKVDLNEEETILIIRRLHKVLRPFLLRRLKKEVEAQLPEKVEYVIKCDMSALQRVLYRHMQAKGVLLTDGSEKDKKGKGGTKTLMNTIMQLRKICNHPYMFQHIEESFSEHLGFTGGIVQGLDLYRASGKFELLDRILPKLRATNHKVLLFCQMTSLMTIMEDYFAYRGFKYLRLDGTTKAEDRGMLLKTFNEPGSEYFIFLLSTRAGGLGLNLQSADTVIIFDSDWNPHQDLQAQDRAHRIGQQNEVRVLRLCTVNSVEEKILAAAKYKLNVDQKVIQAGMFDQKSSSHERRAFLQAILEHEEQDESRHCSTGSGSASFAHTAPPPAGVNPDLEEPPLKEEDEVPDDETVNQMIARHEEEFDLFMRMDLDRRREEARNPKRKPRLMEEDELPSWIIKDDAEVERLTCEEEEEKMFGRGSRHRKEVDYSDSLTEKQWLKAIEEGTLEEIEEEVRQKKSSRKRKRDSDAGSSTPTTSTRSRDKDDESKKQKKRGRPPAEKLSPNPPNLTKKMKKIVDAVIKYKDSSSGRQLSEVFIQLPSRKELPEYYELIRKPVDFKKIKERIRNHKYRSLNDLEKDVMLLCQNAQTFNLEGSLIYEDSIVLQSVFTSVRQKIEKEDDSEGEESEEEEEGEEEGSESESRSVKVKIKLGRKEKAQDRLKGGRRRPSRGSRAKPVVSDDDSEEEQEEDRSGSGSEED

For `Cc1ncsc1-c1ccc([C@H](C)NC(=O)[C@@H]2C[C@@H](O)CN2C(=O)C(c2cc(OCCOc3ccc(-c4cnnc(-c5ccccc5O)c4)cc3)no2)C(C)C)cc1` (mixture of isomers) [Compound 42, (2S,4R)-4-hydroxy-1-(2-(3-(2-(4-(6-(2-hydroxyphenyl)pyridazin-4-yl)phenoxy)ethoxy)isoxazol-5-yl)-3-methylbutanoyl)-N-((S)-1-(4-(4-methylthiazol-5-yl)phenyl)ethyl)pyrrolidine-2-carboxamide], the “Percent degradation (at 100 nM) SMARCA2” value (SMARCA2) was 57% and the EC50 (RERF-LC-A1 cell line) was greater than 100 nM.

For `Cc1ncsc1-c1ccc([C@H](C)NC(=O)[C@@H]2C[C@@H](O)CN2C(=O)[C@@H](NC(=O)CN2CCN(c3ccc(-c4cnnc(-c5ccccc5O)c4)cc3)CC2)C(C)(C)C)cc1` [Compound 2, (2S,4R)-4-hydroxy-1-((S)-2-(2-(4-(4-(6-(2-hydroxyphenyl)pyridazin-4-yl)phenyl)piperazin-1-yl)acetamido)-3,3-dimethylbutanoyl)-N-((S)-1-(4-(4-methylthiazol-5-yl)phenyl)ethyl)pyrrolidine-2-carboxamide], the “Percent degradation (at 100 nM) SMARCA2” value (SMARCA2) was 94%, the “Percent degradation (at 100 nM) SMARCA4” value (SMARCA4) was 0% and the EC50 (SK-MEL-5 cells) was less than 250 nM. For the same molecule, the EC50 (RERF-LC-A1 cell line) was less than 100 nM.

In the case of `Cc1ncsc1-c1ccc([C@H](C)NC(=O)[C@@H]2C[C@@H](O)CN2C(=O)[C@@H](NC(=O)CN2CCN(c3ccc(-c4cnnc(-c5ccccc5O)c4)cn3)CC2)C(C)(C)C)cc1` [Compound 5, (2S,4R)-4-hydroxy-1-((S)-2-(2-(4-(5-(6-(2-hydroxyphenyl)pyridazin-4-yl)pyridin-2-yl)piperazin-1-yl)acetamido)-3,3-dimethylbutanoyl)-N-((S)-1-(4-(4-methylthiazol-5-yl)phenyl)ethyl)pyrrolidine-2-carboxamide], the “Percent degradation (at 100 nM) SMARCA2” value (SMARCA2) is reported as 94%, the “Percent degradation (at 100 nM) SMARCA4” value (SMARCA4) is reported as 0% and the EC50 (SK-MEL-5 cells) is reported as less than 250 nM. The EC50 (RERF-LC-A1 cell line) was greater than 100 nM.

For `Cc1ncsc1-c1ccc([C@H](C)NC(=O)[C@@H]2C[C@@H](O)CN2C(=O)[C@@H](NC(=O)CC2CCN(c3ccc(-c4cnnc(-c5ccccc5O)c4)cc3)CC2)C(C)(C)C)cc1` [Compound 6, (2S,4R)-4-hydroxy-1-((S)-2-(2-(1-(4-(6-(2-hydroxyphenyl)pyridazin-4-yl)phenyl)piperidin-4-yl)acetamido)-3,3-dimethylbutanoyl)-N-((S)-1-(4-(4-methylthiazol-5-yl)phenyl)ethyl)pyrrolidine-2-carboxamide], the “Percent degradation (at 100 nM) SMARCA2” value (SMARCA2) was 97%, the “Percent degradation (at 100 nM) SMARCA4” value (SMARCA4) was 40% and the EC50 (SK-MEL-5 cells) was less than 250 nM. It also gave an EC50 (RERF-LC-A1 cell line) of less than 100 nM.

For `Cc1ncsc1-c1ccc([C@H](C)NC(=O)[C@@H]2C[C@@H](O)CN2C(=O)[C@@H](NC(=O)CN2CC=C(c3ccc(-c4cnnc(-c5ccccc5O)c4)cc3)CC2)C(C)(C)C)cc1` [Compound 10, (2S,4R)-4-hydroxy-1-((S)-2-(2-(4-(4-(6-(2-hydroxyphenyl)pyridazin-4-yl)phenyl)-3,6-dihydropyridin-1(2H)-yl)acetamido)-3,3-dimethylbutanoyl)-N-((S)-1-(4-(4-methylthiazol-5-yl)phenyl)ethyl)pyrrolidine-2-carboxamide], the “Percent degradation (at 100 nM) SMARCA2” value (SMARCA2) was 83%, the “Percent degradation (at 100 nM) SMARCA4” value (SMARCA4) was 0% and the EC50 (SK-MEL-5 cells) was 250 to 500 nM. It also gave an EC50 (RERF-LC-A1 cell line) of less than 100 nM.

`Cc1ncsc1-c1ccc([C@H](C)NC(=O)[C@@H]2C[C@@H](O)CN2C(=O)[C@@H](NC(=O)C(C)N2CCC(c3ccc(-c4cnnc(-c5ccccc5O)c4)cc3)CC2)C(C)(C)C)cc1` (stereo partly drawn) [Compound 14, (2S,4R)-4-hydroxy-1-((2S)-2-(2-(4-(4-(6-(2-hydroxyphenyl)pyridazin-4-yl)phenyl)piperidin-1-yl)propanamido)-3,3-dimethylbutanoyl)-N-((S)-1-(4-(4-methylthiazol-5-yl)phenyl)ethyl)pyrrolidine-2-carboxamide] showed an EC50 (SK-MEL-5 cells) greater than 500 nM and an EC50 (RERF-LC-A1 cell line) of less than 100 nM.
